# From patent US7855232B2, “Organoselenium compound for cancer chemoprevention” (LKT Laboratories, Inc., priority 2001, dated 2010)
# Marks after values point to notes of the source that are not given here.
# Tests used:
# aberrant crypts (AC) = assay: Inhibition of DMH-induced aberrant crypt (AC) formation in colon; type: in vivo, Female CF1 mice; details: high dose 0.04 mmol/kg body weight, gavage, without DMH
# Text: Precancerous lesions called aberrant crypts (AC) are used as a marker for colon carcinogenesis. Mice and rats, when exposed to colon-specific carcinogen, develop preneoplastic changes in colon crypts which leads to malignancy through dysplasia-carcinoma sequence. […] McLellan et al., Cancer Res. 48:6183-6186 (1988); McLellan et al., Cancer Res. 48:2311-2315 (1988).
# The effect of colon-specific carcinogenesis is typically seen in the induction of AC formation in less than two weeks. AC formation is dose dependent and can be quantitated without elaborate instrumentation. In view of the short time-frame required to get quantifiable results, this bio-assay is a useful prescreening tool for the evaluation of chemopreventative efficacy of compounds that are effective against colon cancer. The protocol for aberrant crypts is shown below:
# Female CF1 mice, 3 weeks of age, were purchased from Harlan Sprague-Dawley, Indianapolis, 1N. They were housed, 5 mice per cage, in temperature and humidity-controlled animal quarters with 12 hours light/dark cycle and fed AIN 76A semipurified diet until the ent of the experiment. Water was given ad libitim. The animals were separated into experimental and control groups. The test compounds 0.03-0.04 mmol/kg body weight dissolved in 0.3 mL corn oil, were given by gavage one per day for 8 days. One hour after the inhibitors administration on the 4th and 8th days, 0.4 mg of DMH in 0.2 mL of 0.001 M EDTA, adjusted to pH 6.5 with sodium bicarbonate, was given by gavage. Starting on the 9th day, the inhibitors were given once every other day for an additional 3 weeks. This regimen of inhibitor administration ensures the coverage both the initiation and post initiation periods of carcinogen exposure.
# At the end of the 3 week period, the animals were sacrificed and the colons removed. The starting and terminating weights of the animals were recorded. The procedures for the determination of aberrant crypts were those reported by Bird (Cancer Letters 37:147-151 (1987)). The mouse colon including the caecum was removed, rinsed with PBS, and opened longitudinally. The colon contents was removed by washing with PBS. The colon was spread mucosal side up on a piece of filter paper and fixed in buffered formalin overnight. It was then stained with 0.2% methylene blue in PBS for 60 min. The AC foci was read under light microscope. The AC are topographically distinguished by their increased size, increased pericryptal zone, and thicker and deeply stained epithelial lining compared to normal crypts. The number of foci and AC in the colorectal and caecal parts of the colon were recorded separately. The significance of the data was determined by the analysis of variance method. The significance of the incidence of aberrant crypts bearing animals was analyzed by the X^2 test. The aberrant crypts were examined histologically to verify the dysplastic nature of the changes in animals treated with carcinogens and those treated with carcinogens and inhibitors.
# [1] = test system: Glutathione S-Transferase; assay: Glutathione S-transferase (GST) activity in tissue cytosol of treated mice, CDNB substrate; type: in vivo, Female A/J mice; details: for Ratio Test/con (GST): gavage; for GST act.: gavage in corn oil
# Protocol: The activity of cytosolic was assayed according to the method of Habig et al. using 1-chloro-2,4-dinitrobenzene (CDNB) as the substrate. Habig et al, J. Biol. Chem. 249:7130-7139 (1974). The complete solution contains, in a total volume of 2.0 mL, 0.1 M phosphate buffer, pH 6.5, 5 mM glutathione, 1 mM CDNB, and 20 μL of the cytosol. The reaction was monitored at 340 nm in a Beckman Model DU65 UV-VIS spectrophotometer. Assays were performed at 30° C. Complete assay mixture without the cytosolic enzyme was used as the reference blank. Data as analyzed by the Student's “t” test and P values were obtained in comparison to the control.
# [2] = test system: UDP-Glucuronosyltransferase (UDP-GT); assay: UDP-glucuronosyltransferase (UDP-GT) activity in liver microsomes of treated mice, o-aminophenol substrate; type: in vivo, Female A/J mice; details: for Ratio Test/con (UDP-GT): gavage; for UDP-GT activity (column head prints GSH conc.): gavage in corn oil
# Protocol: Microsomal samples were assayed for enzymatic conjugation by modifying the procedure of Zakim et al., Methods of Biochemical Analysis, ed. David Glick, 21:1-37, (1973). using o-aminophenol as the substrate. The complete assay solution contains, in a total volume of 500 μl, 0.25 M phosphate buffer (pH 7.6), 0.002 M o-aminophenol, 0.05 M UDPGA, 0.125 M magnesium chloride and 100 μl microsomes. The mixture was incubated for 30 minutes. Reactions were stopped by the addition of 500 μl of TCA-sodium phosphate reagent. The precipitated protein was removed, 100 μl of 0.05% sodium nitrite was added to 950 μl of the supernatent solution and allowed to stand for 5 minutes. 100 μl of 0.5% ammonium sulfamate was added, after 5 minutes. 100 μl of 0.12% N-(-1-naphthyl)ethylenediamine dihydrochloride was added and incubated for 2 hours in the dark; and the difference in the optical density between the blanks and the samples were recorded at 555 nm in a Beckman model DU65 UV-VIS spectrophotometer. The UDP-GT activity was calculated using the extinction coefficient 29 mM-1 cm-1 for the coupled product.
# GSH = assay: Glutathione (GSH) concentration in tissues of treated mice, HPLC; type: in vivo, Female A/J mice; details: for Ratio Test/con (GSH): gavage; for GSH conc.: gavage in corn oil
# Protocol: GSH was quantitated by modification of the procedure Siller-Cepeda et al. Plant Cell Physiol. 32:1179-1185 (1991). Aliquots of tissue homogenates were mixed with equal volumes of 20% PCA containing 2 mM BPDS. Vortex, centrifuge at 7800×g for 15 minutes at 4° C. and 250 μl supernatant transferred into a microfuge tube containing 25 μl of γ-glu-glu as internal standard. The samples were carboxymethylated with 25 μl of 100 mM iodoacetic acid dissolved in 0.2 mM m-cresol purple sodium salt solution. The pH of the solution was adjusted to 9-10 by adding 350 μl of KOH (2M)-KHCO3 (2.4 M) mixture and incubated in the dark for 15 minutes. After carboxymethylation, the samples were derivatized with 500 μl of 1% dinitrofluorobenzene (DNFB) and kept in the dark at 4° C. overnight. The samples were centrifuged at 13,000×g for 15 minutes, filtered through 0.2 μm filter, and were analyzed with a SHIMADZU two-pump gradient HPLC system. Samples were injected by a SHIMADZU SIL-10AV Autoinjector onto a Varian 3-aminopropyl MICROSORB-MV column (4.6×250 mm) operated at ambient temperature with a flow rate of 1 ml/min. Absorbance of the dinitrophenyl derivatives was monitored at 365 nm. The amount of GSH was calculated from a standard curve using γ-glu-glu as internal standard.
# [3] = colon, dose 0.02 mmol/Kg body weight
# [4] = colon, dose 0.04 mmol/Kg body weight
# [5] = forestomach, dose 0.02 mmol/Kg body weight
# [6] = forestomach, dose 0.04 mmol/Kg body weight
# [7] = liver, dose 0.02 mmol/Kg body weight
# [8] = liver, dose 0.04 mmol/Kg body weight
# [9] = lung, dose 0.02 mmol/Kg body weight
# [10] = lung, dose 0.04 mmol/Kg body weight
# [11] = small intestinal mucosa, dose 0.02 mmol/Kg body weight
# [12] = small intestinal mucosa, dose 0.04 mmol/Kg body weight
compound,measurement,setting,value
"N#C[Se]C([Se]C#N)c1cccs1 [(1) TMSC, 2-thienyl methylene selenocyanate]",melting point,,48 to 50 °C
"[Se]=C=NCc1ccc(CN=C=[Se])s1 [(6) TDMISC, thienyl-2,5-di-methylene isoselenocyanate]",% animals,aberrant crypts (AC),0.0%
same,AC/Colon,aberrant crypts (AC),0.00
same,AC/Foci,aberrant crypts (AC),0.00
same,ACF/Colon,aberrant crypts (AC),0.00
same,Total AC,aberrant crypts (AC),0
same,Total ACF,aberrant crypts (AC),0
same,Ratio Test/con (GST),[1]; [3],1.12
same,GST act.,[1]; [3],0.73 ± 0.026 ^g μmol/min mg protein
same,Ratio Test/con (GST),[1]; [4],1.14
same,GST act.,[1]; [4],0.74 ± 0.04 ^f μmol/min mg protein
same,Ratio Test/con (GST),[1]; [5],0.93
same,GST act.,[1]; [5],1.03 ± 0.20 μmol/min mg protein
same,Ratio Test/con (GST),[1]; [6],1.11
same,GST act.,[1]; [6],1.23 ± 0.35 μmol/min mg protein
same,Ratio Test/con (GST),[1]; [7],1.90
same,GST act.,[1]; [7],2.43 ± 0.46 ^e μmol/min mg protein
same,Ratio Test/con (GST),[1]; [8],2.53
same,GST act.,[1]; [8],3.24 ± 0.39 ^e μmol/min mg protein
same,Ratio Test/con (GST),[1]; [9],1.29
same,GST act.,[1]; [9],0.44 ± 0.04 ^f μmol/min mg protein
same,Ratio Test/con (GST),[1]; [10],1.73
same,GST act.,[1]; [10],0.59 ± 0.29 μmol/min mg protein
same,Ratio Test/con (GST),[1]; [11],2.45
same,GST act.,[1]; [11],0.54 ± 0.11 ^e μmol/min mg protein
same,Ratio Test/con (GST),[1]; [12],2.41
same,GST act.,[1]; [12],0.53 ± 0.03 ^c μmol/min mg protein
same,Ratio Test/con (UDP-GT),[2]; dose 0.02 mmol/Kg body weight,1.50
same,UDP-GT activity (column head prints GSH conc.),[2]; dose 0.02 mmol/Kg body weight,6.08 ± 0.76 ^d nmol/min/mg protein
same,Ratio Test/con (UDP-GT),[2]; dose 0.04 mmol/Kg body weight,1.49
same,UDP-GT activity (column head prints GSH conc.),[2]; dose 0.04 mmol/Kg body weight,7.98 ± 2.49 nmol/min/mg protein
same,Ratio Test/con (GSH),GSH; [7],0.95
same,GSH conc.,GSH; [7],3.38 ± 1.11 μmol/gm tissue weight
same,Ratio Test/con (GSH),GSH; [8],1.49
same,GSH conc.,GSH; [8],5.29 ± 1.09 μmol/gm tissue weight
same,Ratio Test/con (GSH),GSH; [11],1.07
same,GSH conc.,GSH; [11],2.26 ± 1.87 μmol/gm tissue weight
same,Ratio Test/con (GSH),GSH; [12],1.76
same,GSH conc.,GSH; [12],3.71 ± 0.31^d μmol/gm tissue weight
